# ChEMBL document CHEMBL1132047, “Nonpeptide oxytocin antagonists: analogs of L-371,257 with improved potency” (Bioorg Med Chem Lett, 1999)
# Key:
# [1] = Compound was evaluated in vivo in rat for the plasma half-life at a iv dose of 3 mg/kg and oral dose of 10 mg/kg and experiment by using concentration vs time curve; assay type: ADME, organism-based
# Oxytocin receptor [2] = target: T1, Oxytocin receptor (Rattus norvegicus, UniProt P70536); test: Binding affinity for rat uterine oxytocin receptor (rOTr)
# T1 sequence (P70536 whole entry): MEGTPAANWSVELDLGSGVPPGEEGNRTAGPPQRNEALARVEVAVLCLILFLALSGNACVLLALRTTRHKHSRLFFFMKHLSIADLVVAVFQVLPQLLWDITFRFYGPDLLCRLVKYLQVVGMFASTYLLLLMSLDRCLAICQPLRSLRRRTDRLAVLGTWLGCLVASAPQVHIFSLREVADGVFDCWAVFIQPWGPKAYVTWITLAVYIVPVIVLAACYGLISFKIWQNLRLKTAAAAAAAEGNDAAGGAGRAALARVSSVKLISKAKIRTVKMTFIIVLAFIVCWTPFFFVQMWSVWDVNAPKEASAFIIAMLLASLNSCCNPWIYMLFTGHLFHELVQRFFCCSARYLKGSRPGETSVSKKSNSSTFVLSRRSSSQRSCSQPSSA
# Oxytocin receptor [3] = target: T2, Oxytocin receptor (Homo sapiens, UniProt P30559); test: Binding affinity for human oxytocin receptor
# T2 sequence (P30559 whole entry): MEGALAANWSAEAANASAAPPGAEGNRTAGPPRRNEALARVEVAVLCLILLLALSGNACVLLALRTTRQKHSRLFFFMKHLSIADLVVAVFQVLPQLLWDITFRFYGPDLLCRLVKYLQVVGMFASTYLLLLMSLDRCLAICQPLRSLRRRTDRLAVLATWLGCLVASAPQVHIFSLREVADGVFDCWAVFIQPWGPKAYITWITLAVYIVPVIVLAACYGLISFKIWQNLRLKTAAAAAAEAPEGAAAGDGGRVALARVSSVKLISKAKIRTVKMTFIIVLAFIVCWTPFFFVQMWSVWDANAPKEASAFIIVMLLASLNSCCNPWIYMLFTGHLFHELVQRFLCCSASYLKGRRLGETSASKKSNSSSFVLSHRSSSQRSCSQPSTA
# Rattus norvegicus [4] = test: Compound tested in vivo for antagonist potency against oxytocin (OT)-induced in rats by iv administration; assay type: functional
# [5] = Oral bioavailability in rat (dose 20 mg/kg); assay type: ADME, organism-based; settings: in vivo
# Rattus norvegicus [6] = test: Compound tested in vivo for antagonist potency against oxytocin (OT)-induced in rats by id administration; assay type: functional
# [7] = Compound was evaluated for pharmacokinetic property in rats after an oral dose of 10 mg/kg and the value was reported as oral bioavailability (F); assay type: ADME, organism-based; settings: rat, in vivo
# Vasopressin V1a receptor [8] = target: Vasopressin V1a receptor (Homo sapiens, UniProt P37288); test: Binding affinity towards human Vasopressin V1a receptor by using functional assay
# Vasopressin V1a receptor (Homo sapiens, UniProt P37288), sequence (P37288 whole entry): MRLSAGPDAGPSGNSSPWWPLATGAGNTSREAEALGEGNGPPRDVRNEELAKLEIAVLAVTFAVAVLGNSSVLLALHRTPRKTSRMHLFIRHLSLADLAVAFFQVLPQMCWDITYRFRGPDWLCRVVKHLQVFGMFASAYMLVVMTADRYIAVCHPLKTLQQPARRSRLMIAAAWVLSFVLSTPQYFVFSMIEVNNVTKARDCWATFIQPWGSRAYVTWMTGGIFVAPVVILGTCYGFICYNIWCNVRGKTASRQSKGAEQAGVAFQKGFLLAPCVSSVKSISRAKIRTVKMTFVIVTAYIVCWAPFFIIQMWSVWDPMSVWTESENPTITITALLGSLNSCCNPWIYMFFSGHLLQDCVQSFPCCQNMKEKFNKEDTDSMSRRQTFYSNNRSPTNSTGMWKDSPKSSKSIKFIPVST
# Vasopressin V2 receptor [9] = target: Vasopressin V2 receptor (Homo sapiens, UniProt P30518); test: Binding affinity towards cloned human Vasopressin V2 receptor by using functional assay
# Vasopressin V2 receptor (Homo sapiens, UniProt P30518), sequence (P30518 whole entry): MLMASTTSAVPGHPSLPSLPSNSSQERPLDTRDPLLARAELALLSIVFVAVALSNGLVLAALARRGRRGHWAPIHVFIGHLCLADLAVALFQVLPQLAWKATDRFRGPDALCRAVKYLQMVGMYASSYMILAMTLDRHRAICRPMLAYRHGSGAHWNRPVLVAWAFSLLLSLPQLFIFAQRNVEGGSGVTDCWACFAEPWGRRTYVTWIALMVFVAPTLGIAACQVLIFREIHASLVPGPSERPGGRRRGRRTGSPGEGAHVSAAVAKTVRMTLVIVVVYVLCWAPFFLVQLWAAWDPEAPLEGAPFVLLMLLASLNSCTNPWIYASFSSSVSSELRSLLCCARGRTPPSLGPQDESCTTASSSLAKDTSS
# Vasopressin V2 receptor [10] = target: Vasopressin V2 receptor (Rattus norvegicus, UniProt Q00788); test: Binding affinity towards rat kidney Vasopressin V2 receptor by using functional assay
# Vasopressin V2 receptor (Rattus norvegicus, UniProt Q00788), sequence (Q00788 whole entry): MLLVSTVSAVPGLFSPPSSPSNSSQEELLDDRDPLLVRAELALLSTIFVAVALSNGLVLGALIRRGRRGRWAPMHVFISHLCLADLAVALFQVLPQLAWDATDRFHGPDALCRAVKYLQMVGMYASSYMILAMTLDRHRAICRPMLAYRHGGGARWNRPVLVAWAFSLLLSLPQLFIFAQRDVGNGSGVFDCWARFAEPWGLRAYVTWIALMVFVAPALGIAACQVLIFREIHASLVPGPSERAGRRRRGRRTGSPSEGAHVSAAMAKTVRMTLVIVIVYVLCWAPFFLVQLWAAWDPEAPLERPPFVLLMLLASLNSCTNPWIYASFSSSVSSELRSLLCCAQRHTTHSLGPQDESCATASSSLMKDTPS
# Vasopressin V1a receptor [11] = target: Vasopressin V1a receptor (Rattus norvegicus, UniProt P30560); test: Binding affinity towards rat liver Vasopressin V1a receptor by using functional assay
# Vasopressin V1a receptor (Rattus norvegicus, UniProt P30560), sequence (P30560 whole entry): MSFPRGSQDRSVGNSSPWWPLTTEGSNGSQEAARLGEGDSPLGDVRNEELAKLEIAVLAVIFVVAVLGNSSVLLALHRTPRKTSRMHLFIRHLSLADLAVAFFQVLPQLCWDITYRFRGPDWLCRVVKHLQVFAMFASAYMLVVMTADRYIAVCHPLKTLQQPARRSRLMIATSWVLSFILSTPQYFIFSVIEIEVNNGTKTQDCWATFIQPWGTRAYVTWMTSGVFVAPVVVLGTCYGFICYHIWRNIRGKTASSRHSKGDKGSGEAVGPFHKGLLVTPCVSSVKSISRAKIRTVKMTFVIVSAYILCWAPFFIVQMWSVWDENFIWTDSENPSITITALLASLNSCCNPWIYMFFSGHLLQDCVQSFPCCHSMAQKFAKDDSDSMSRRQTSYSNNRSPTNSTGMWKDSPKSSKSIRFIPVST
# [12] = Compound was evaluated in vivo in rat for the plasma half-life at a oral dose of 20 mg/kg experiment by using concentration vs time curve; assay type: ADME, organism-based; design: dose 20 mg/kg, route oral
# Rattus norvegicus [13] = test: Compound tested in vivo for antagonist potency against oxytocin (OT)-induced contractions in rat uterus by iv administration; assay type: functional
SMILES,Ki (Oxytocin receptor [2]) [nM],Ki (Oxytocin receptor [3]) [nM],AD50 (Rattus norvegicus [4]) [mg/kg],AD50 (Rattus norvegicus [6]) [mg/kg],also measured
O=C(Cc1ccc(OC2CCN(CC3CC3)CC2)cc1OCC(F)(F)F)N1CCC(N2C(=O)OCc3ccccc32)CC1,1.2,1,0.69,22,half-life [1]: 1.7 h; bioavailability [5]: 45%
CC(=O)N1CCC(Oc2ccc(CC(=O)N3CCC(N4C(=O)OCc5ccccc54)CC3)c(OCC(F)(F)F)c2)CC1,0.71,1.4,0.06,0.64,bioavailability [7]: 19%; half-life [1]: 0.27 h; Ki (Vasopressin V1a receptor [8]): 740 nM; Ki (Vasopressin V2 receptor [9]): 130 nM; bioavailability [5]: 19%; Ki (Vasopressin V2 receptor [10]): 150 nM; Ki (Vasopressin V1a receptor [11]): 2 nM
CC(=O)N1CCC(Oc2ccc(CC(=O)N3CCC(N4C(=O)OCc5ccccc54)CC3)c(OC(F)(F)F)c2)CC1,2.8,2.4,0.27,–,–
COc1cc(OC2CCN(C(C)=O)CC2)ccc1C(=O)N1CCC(N2C(=O)OCc3ccccc32)CC1,–,–,–,2.5,half-life [12]: 0.5 h; AD50 (Rattus norvegicus [13]): 0.55 mg/kg
O=C(Cc1ccccc1OCC(F)(F)F)N1CCC(N2C(=O)OCc3ccccc32)CC1,6,4.5,1,>10,–
O=C(Cc1ccc(N2CCOCC2)cc1OCC(F)(F)F)N1CCC(N2C(=O)OCc3ccccc32)CC1,0.6,0.86,0.077,0.97,–
CC(=O)N1CCC(Oc2ccc(CC(=O)N3CCC(N4C(=O)OCc5ccccc54)CC3)cc2)CC1,1600,390,–,–,–
COc1ccc(CCC(=O)N2CCC(N3C(=O)OCc4ccccc43)CC2)c(OC)c1,520,240,–,–,–
COc1ccc(CC(=O)N2CCC(N3C(=O)OCc4ccccc43)CC2)c(OC)c1,37,33,–,–,–
O=C(Cc1ccc(OCCN2CCOCC2)cc1OCC(F)(F)F)N1CCC(N2C(=O)OCc3ccccc32)CC1,2.1,1.4,0.13,–,half-life [1]: 2.8 h; bioavailability [5]: 31%
COc1cc(OC2CCN(C(C)=O)CC2)ccc1CC(=O)N1CCC(N2C(=O)OCc3ccccc32)CC1,36,9.8,–,–,–
